The values that follow come from patent EP2149557A1, “Styrylquinolines, their process of preparation and their therapeutic uses” (BioAlliance Pharma, priority 2008, dated 2010).

pIC50: −log10 of the molar value.

One data set relates to HeLa-P4 cell. Put plainly: Viability assay (cytotoxicity, MTT). In kind it is cell-based. The note with it: 2 days, comparative compound table, read-out: Cytotoxicity IC50. As for the experimental part:
(§1) The cytotoxicity of compounds was evaluated using un-infected and infected HeLa-P4 cell and CEM leukemia cells. CEM cell were obtained from the […] (Rockville, MD). A serial dilution of drugs is done to evaluate the cytotoxicity concentration and is identified by CC50 (concentration of drug which induces 50% of cytotoxicity) The HeLa-P4 was cultured in the presence or absence of compounds for 2 days. After this time period, cells were cultivated with MTT for 3 hours, further the medium is removed. And the lysis buffer is incubated for 1 hour, followed by plate reading at 540 nm in a microplate reader.

The subject of data set [1] is wild type HIV-1 virus (NL 4.3 strains). The experiment in a line: Antiviral activity assay on Hela P4 cells (beta-galactosidase, CPRG). The format is cell-based. The note with it: Human immunodeficiency virus 1; HelaP4 cells, 48 hours incubation. As for the experimental part:
The antiviral activity is determined by infecting HelaP4 cells with a wild type HIV-1 virus (NL 4.3 strains at 3 ng) on cells in presence or absence of drugs. A serial dilution of drugs is done to evaluate the EC50. The effective concentration is the concentration of product at which virus replication is inhibited by 50 percent. After 48 hours incubation, the quantification is done by the evaluation of β-Galactosidase produced by the infected Hela P4 cells. The viral activity is evaluated by colorimetric assay, CPRG, followed by plate reading at 570 nm with a reference of 690 nm. The CPRG test is a colorimetric assay which allows to quantity the β-galactosidase produced by HIV-1 infected indicator cells (the β-Gal gene being under the control of the HIV-1 LTR).

The target of data set [2] is T1, HBX2 HIV integrase (Human immunodeficiency virus type 1 group M subtype B, UniProt P04585). The experiment in a line: 3' LTR processing assay. In kind it is biochemical. The note with it: 3' processing, IN 200nM, substrate DNA 12.5 nM, up to 2 h at 37°C.
Description: For processing, strand transfer, 100 pmol of U5B, U5B-2, respectively, were radiolabeled using T4 polynucleotide kinase and 50 µCi of [γ-32P]ATP (3000 Ci/mmol). The T4 kinase was heat inactivated, and unincorporated nucleotides were removed using a Sephadex G-10 column (GE HealthCare). NaCl was added to a final concentration of 0.1 M, and complementary unlabeled strand U5A was added to either U5B or U5B-2. The mixture was heated to 90°C for 3 min, and the DNA was annealed by slow cooling.
Processing reaction was performed using U5A-U5B, in buffer containing 20 mM Tris (pH 7.2), 50 mM NaCl, 10 mM DTT, and 10mM MgCl2. […] The reactions were stopped by phenol/chloroform extraction, and DNA products were precipitated with ethanol. The products were separated in TE containing 7 M urea and electrophoresed on an 18% denaturing acrylamide/urea gel. Gels were analyzed using a STORM Molecular Dynamics phosphorimager and quantified with Image Quant™ 4.1 software.
Data set [3] is described as follows: Viability assay (cytotoxicity, MTT). In kind it is cell-based. The note with it: human, HeLa-P4 cells, read-out: Cytoto -xicity IC50. As to the method: as §1
The target of data set [4] is T1, HBX2 HIV integrase. The experiment in a line: Strand transfer assay. In kind it is biochemical. The note with it: IN 200nM, substrate DNA 12.5 nM, up to 2 h at 37°C, read-out: Transfert IC50.
Description: The pET-15b-IN plasmid contains the cDNA encoding the HBX2 HIV integrase. His-tagged integrase protein was overexpressed in Escherichia coli BL21 (DE3) and purified under native conditions. Briefly, at an OD of 0.8, fusion protein expression was induced in bacterial cultures by the addition of IPTG (1 mM). Cultures were incubated for 3 h at 37°C, after which cells were centrifuged. The cell pellet was resuspended in ice-cold buffer A [20 mM Tris-HCl (pH 8), 1 M NaCl, 4 mM β-mercaptoethanol, and 5 mM imidazole], treated with lysozyme for 1 h on ice, and sonicated. After centrifugation (30 min at 10 000 rpm), the supernatant was filtered (0.45 µm) and incubated for at least 2 h with Ni-NTA agarose beads (Pharmacia). The beads were washed twice with 10 volumes of buffer A, 10 volumes of buffer A with 50 mM imidazole, and 10 volumes of buffer A with 100 mM imidazole. His-tagged integrase was then eluted with buffer A supplemented with 50 µM ZnS04 and 1 M imidazole. […]
Processing, strand transfer reactions were performed using U5A-U5B-2, in buffer containing 20 mM Tris (pH 7.2), 50 mM NaCl, 10 mM DTT, 10mM MgCl2. […] Gels were analyzed using a STORM Molecular Dynamics phosphorimager and quantified with Image Quant™ 4.1 software.

For the molecule `COc1cc(/C=C/c2ccc3ccc(C(=O)O)c(O)c3n2)cc(O)c1O` [FZ41, reference compound], the CC50 with HeLa-P4 cell is more than 100 µM.

A word on the pIC50: it is the negative decadic logarithm of the IC50, by convention in mol/L. For orientation: IC50 means the point on the concentration scale where inhibition reaches its midpoint. As for `CC(=O)c1ccc2ccc(/C=C/c3cc(O)c(O)cc3O)nc2c1O` [SQE 95, (E)-1-(8-hydroxy-2-(2,4,5-trihydroxystyryl)quinolin-7-yl)ethanone], the pIC50 in data set [1] was 4.86; on HBX2 HIV integrase [2], 6.70; at HBX2 HIV integrase [4], 6.70. The IC50 at 2 days in data set [3] is 12.5 µM.
